# From article PMC6176658, “Experimentally Validated Pharmacoinformatics Approach to Predict hERG Inhibition Potential of New Chemical Entities” (Frontiers in Pharmacology, 2018)
# Target: T1, hERG (Kv11.1) potassium channel (Homo sapiens, UniProt Q12809)
# T1 construct: gene KCNH2
# Experiment: cell-based
# T1 sequence (Q12809 whole entry): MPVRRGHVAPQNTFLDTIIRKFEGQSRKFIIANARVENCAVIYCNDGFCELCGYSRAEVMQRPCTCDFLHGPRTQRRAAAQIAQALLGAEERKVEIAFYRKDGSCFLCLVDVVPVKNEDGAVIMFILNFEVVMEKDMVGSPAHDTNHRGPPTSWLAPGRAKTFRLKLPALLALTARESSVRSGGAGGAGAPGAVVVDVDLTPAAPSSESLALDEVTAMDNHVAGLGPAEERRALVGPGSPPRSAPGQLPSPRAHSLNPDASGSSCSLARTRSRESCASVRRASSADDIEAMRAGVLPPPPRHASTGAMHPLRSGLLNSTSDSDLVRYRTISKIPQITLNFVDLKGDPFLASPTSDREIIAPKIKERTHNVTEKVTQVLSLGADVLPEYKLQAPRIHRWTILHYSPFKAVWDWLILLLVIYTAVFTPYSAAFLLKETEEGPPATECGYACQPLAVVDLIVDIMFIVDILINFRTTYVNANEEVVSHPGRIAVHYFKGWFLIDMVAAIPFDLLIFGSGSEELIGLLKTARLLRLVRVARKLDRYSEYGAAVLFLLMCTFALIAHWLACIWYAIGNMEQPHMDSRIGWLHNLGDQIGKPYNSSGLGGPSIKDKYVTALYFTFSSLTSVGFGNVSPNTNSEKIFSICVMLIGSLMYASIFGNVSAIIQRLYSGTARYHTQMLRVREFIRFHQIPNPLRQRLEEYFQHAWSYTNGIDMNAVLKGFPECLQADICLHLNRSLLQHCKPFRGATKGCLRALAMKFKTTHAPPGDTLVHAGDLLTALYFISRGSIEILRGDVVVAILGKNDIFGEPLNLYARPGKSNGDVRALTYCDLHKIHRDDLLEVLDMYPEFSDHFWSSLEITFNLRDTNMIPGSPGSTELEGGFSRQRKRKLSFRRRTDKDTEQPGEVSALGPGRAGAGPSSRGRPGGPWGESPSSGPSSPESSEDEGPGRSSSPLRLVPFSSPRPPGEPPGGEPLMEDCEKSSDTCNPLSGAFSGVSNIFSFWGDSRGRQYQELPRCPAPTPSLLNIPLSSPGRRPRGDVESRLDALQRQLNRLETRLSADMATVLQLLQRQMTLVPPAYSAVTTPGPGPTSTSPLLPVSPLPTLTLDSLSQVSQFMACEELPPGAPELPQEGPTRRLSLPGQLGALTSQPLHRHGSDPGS
compound,measurement,value
CCOC(=O)c1cc(C)n(-c2ccccc2)c1C [OSM-S-31],IC50,3.89 µM
